The target in assay [1] is Beta Secretase enzyme (BACE) (Homo sapiens (Human), UniProt P56817). The experiment in a line: In vitro enzymatic BACE FRET assay. It is filed as biochemical. To be noted: read-out: BACE1 Enzyme assay IC50.
The target of the next assay is Cathepsin D (Cat D) (Homo sapiens (Human), UniProt P07339). The experiment in a line: In vitro enzymatic Cathepsin D (Cat D) FRET assay. It counts as biochemical. The settings on record: read-out: CatD IC50.
Another assay concerns the target BACE (Homo sapiens (Human), UniProt P56817). The experiment in a line: In vitro BACE cell-based assay (Aβ40 in conditioned medium, sandwich ELISA).

Each structure is given as a SMILES string. A value given as a limit tells only on which side of the number the result lay.

Broadly, the IC50 is the concentration needed to halve the response being measured.

Chain of Cathepsin D (Cat D) (P07339 65-412, species assumed): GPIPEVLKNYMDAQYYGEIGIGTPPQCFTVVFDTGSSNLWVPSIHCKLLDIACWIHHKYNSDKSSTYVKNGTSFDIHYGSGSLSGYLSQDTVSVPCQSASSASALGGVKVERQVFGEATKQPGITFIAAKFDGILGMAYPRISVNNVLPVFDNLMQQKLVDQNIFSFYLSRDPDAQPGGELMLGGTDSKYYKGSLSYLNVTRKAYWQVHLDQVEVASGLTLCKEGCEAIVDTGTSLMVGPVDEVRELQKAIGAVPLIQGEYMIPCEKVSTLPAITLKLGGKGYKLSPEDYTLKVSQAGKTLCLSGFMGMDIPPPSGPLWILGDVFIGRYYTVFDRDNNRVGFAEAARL
Chain of BACE (P56817 46-501, species assumed): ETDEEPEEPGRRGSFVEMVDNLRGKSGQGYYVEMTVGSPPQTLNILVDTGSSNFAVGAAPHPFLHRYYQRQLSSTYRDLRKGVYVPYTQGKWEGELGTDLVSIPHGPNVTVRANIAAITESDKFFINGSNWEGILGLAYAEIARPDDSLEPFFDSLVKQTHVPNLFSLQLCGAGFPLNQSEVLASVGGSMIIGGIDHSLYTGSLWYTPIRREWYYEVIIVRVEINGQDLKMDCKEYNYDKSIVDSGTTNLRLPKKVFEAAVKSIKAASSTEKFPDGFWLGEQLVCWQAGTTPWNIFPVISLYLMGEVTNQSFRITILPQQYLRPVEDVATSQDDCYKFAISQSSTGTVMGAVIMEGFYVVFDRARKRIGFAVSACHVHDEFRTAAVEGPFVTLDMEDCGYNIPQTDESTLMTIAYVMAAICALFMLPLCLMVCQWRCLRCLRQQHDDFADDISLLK
Chain of Beta Secretase enzyme (BACE) (P56817 46-501): as the sequence (P56817 46-501, species assumed) above
Experimental for Cathepsin D (Cat D): In Vitro Enzymatic Cathepsin D (Cat D) FRET (Fluorescence Resonance Energy Transfer) Assay
Recombinant Cat D was expressed in CHO cells. The assay buffer for CathepsinD is 0.05 M citrate pH 3.5, 10% DMSO final, 5 mM CHAPS. […] The assays are effectively started by the addition of different FRET substrates (20 nM for Cat D) and the combination is incubated for one hour. The FRET assay is terminated with by addition of Tris buffer, which raises the pH to neutrality, and the fluorescence is determined. […] Proteolytic cleavage of the FRET substrate releases quenching of fluorescence (Cat D excitation 500 nm and emission 580 nm).

With `COc1cc(F)cnc1C(=O)Nc1ccc(F)c([C@@]2(C(F)F)N=C(N)O[C@@H]3C[C@@H]32)c1` [Example 307, N-(3-((1R,5S,6R)-3-amino-5-(difluoromethyl)-2-oxa-4-azabicyclo[4.1.0]hept-3-en-5-yl)-4-fluorophenyl)-5-fluoro-3-methoxypicolinamide], the IC50 is 413 nM in assay [1], greater than 400 µM at Cathepsin D (Cat D) and 0.139 µM against BACE.

Consider `NC1=N[C@@](c2cc(NC(=O)c3ncc(Cl)cc3CF)ccc2F)(C(F)F)[C@H]2C[C@H]2O1` [Example 308, N-(3-((1R,5S,6R)-3-amino-5-(difluoromethyl)-2-oxa-4-azabicyclo[4.1.0]hept-3-en-5-yl)-4-fluorophenyl)-5-chloro-3-(fluoromethyl) picolinamide], for which the IC50 worked out at 17.7 nM in assay [1], 186 µM on Cathepsin D (Cat D) and 0.0321 µM against BACE.

As to `Cc1cc(C#N)cnc1C(=O)Nc1cc(F)c(C)c([C@@]2(C(F)F)N=C(N)O[C@@H]3C[C@@H]32)c1` [Example 310, N-(3-((1R,5S,6R)-3-amino-5-(difluoromethyl)-2-oxa-4-azabicyclo[4.1.0]hept-3-en-5-yl)-5-fluoro-4-methylphenyl)-5-cyano-3-methylpicolinamide], the IC50 is greater than 40000 nM in assay [1], 1770 µM at Cathepsin D (Cat D) and greater than 15.6 µM at BACE.

`Cc1cc(C#N)cnc1C(=O)Nc1cc(F)c(C)c([C@]2(C(F)F)N=C(N)O[C@H]3C[C@H]32)c1` [Example 311, N-(3-((1S,5R,6S)-3-amino-5-(difluoromethyl)-2-oxa-4-azabicyclo[4.1.0]hept-3-en-5-yl)-5-fluoro-4-methylphenyl)-5-cyano-3-methylpicolinamide]: the IC50 came out at 46.6 nM in assay [1], 294 µM at Cathepsin D (Cat D) and 0.0174 µM at BACE.

`CC#Cc1ccc(C(=O)Nc2ccc(F)c([C@@]3(C(F)F)N=C(N)O[C@@H]4C[C@@H]43)c2)nc1` [Example 314, N-(3-((1R,5S,6R)-3-amino-5-(difluoromethyl)-2-oxa-4-azabicyclo[4.1.0]hept-3-en-5-yl)-4-fluorophenyl)-5-(prop-1-yn-1-yl)picolinamide]: the figures for the 50% inhibitory concentration (IC50) (in assay [1]; at Cathepsin D (Cat D); on BACE) were 46.7 nM, 421 µM and 0.0891 µM, respectively.

As for `Cc1nc(OCC(F)(F)F)cnc1C(=O)Nc1cc(F)c(Cl)c([C@@]2(CF)N=C(N)O[C@@H]3C[C@@H]32)c1` [Example 315, N-(3-((1R,5S,6R)-3-amino-5-(fluoromethyl)-2-oxa-4-azabicyclo[4.1.0]hept-3-en-5-yl)-4-chloro-5-fluorophenyl)-3-methyl-5-(2,2,2-trifluoroethoxy)pyrazine-2-carboxamide], the results for the IC50 (in assay [1]; at Cathepsin D (Cat D); on BACE) were 93.6 nM, 556 µM and 0.0927 µM, respectively.

Regarding `Cc1nc(OCC(F)(F)F)cnc1C(=O)Nc1cc(F)c(Cl)c([C@]2(CF)N=C(N)O[C@H]3C[C@H]32)c1` [Example 316, N-(3-((1S,5R,6S)-3-amino-5-(fluoromethyl)-2-oxa-4-azabicyclo[4.1.0]hept-3-en-5-yl)-4-chloro-5-fluorophenyl)-3-methyl-5-(2,2,2-trifluoroethoxy)pyrazine-2-carboxamide], the figures for the IC50 (in assay [1]; at Cathepsin D (Cat D); at BACE) were greater than 40000 nM, 1080 µM and greater than 15.6 µM, respectively.

Take `C#CCOc1cnc(C(=O)Nc2cc(F)c(Cl)c([C@@]3(CF)N=C(N)O[C@@H]4C[C@@H]43)c2)cn1` [Example 317, N-(3-((1R,5S,6R)-3-amino-5-(fluoromethyl)-2-oxa-4-azabicyclo[4.1.0]hept-3-en-5-yl)-4-chloro-5-fluorophenyl)-5-(prop-2-yn-1-yloxy)pyrazine-2-carboxamide]: the IC50 in assay [1] worked out at 2.8 nM; on Cathepsin D (Cat D), 41 µM; against BACE it was 0.0014 µM.

As to `C#CCOc1cnc(C(=O)Nc2cc(F)c(Cl)c([C@]3(CF)N=C(N)O[C@H]4C[C@H]43)c2)cn1` [Example 318], the IC50 in assay [1] was found to be 4070 nM; on Cathepsin D (Cat D) it was 370 µM; against BACE, 1.49 µM.

Turning to `COc1cnc(C(=O)Nc2ccc(F)c([C@]3(C)N=C(N)O[C@H]4C[C@H]43)n2)cn1` [Example 323, N-(6-((1S,5R,6S)-3-amino-5-methyl-2-oxa-4-azabicyclo[4.1.0]hept-3-en-5-yl)-5-fluoropyridin-2-yl)-5-methoxypyrazine-2-carboxamide], the IC50 in assay [1] was greater than 40000 nM; at Cathepsin D (Cat D), greater than 400 µM; on BACE, greater than 15.6 µM.

Turning to `C[C@]1(c2nc(NC(=O)c3ccc(C#N)cn3)ccc2F)N=C(N)O[C@@H]2C[C@@H]21` [Example 324, N-(6-((1R,5S,6R)-3-amino-5-methyl-2-oxa-4-azabicyclo[4.1.0]hept-3-en-5-yl)-5-fluoropyridin-2-yl)-5-cyanopicolinamide], the half-inhibitory concentration (IC50) came to 150 nM in assay [1], 182 µM on Cathepsin D (Cat D) and 0.0283 µM on BACE.

For `C[C@]1(c2nc(NC(=O)c3ccc(Cl)cn3)ccc2F)N=C(N)O[C@@H]2C[C@@H]21` [Example 326, N-(6-((1R,5S,6R)-3-amino-5-methyl-2-oxa-4-azabicyclo[4.1.0]hept-3-en-5-yl)-5-fluoropyridin-2-yl)-5-chloropicolinamide], the IC50 in assay [1] turned out to be 242 nM; on Cathepsin D (Cat D), 279 µM; on BACE, 0.0323 µM.

With `C[C@@]1(c2nc(NC(=O)c3ccc(Cl)cn3)ccc2F)N=C(N)O[C@H]2C[C@H]21` [Example 327, N-(6-((1S,5R,6S)-3-amino-5-methyl-2-oxa-4-azabicyclo[4.1.0]hept-3-en-5-yl)-5-fluoropyridin-2-yl)-5-chloropicolinamide], the IC50 in assay [1] was determined as 2140 nM; at Cathepsin D (Cat D), 1320 µM; against BACE, 0.703 µM.

For the compound `C[C@]1(c2nc(NC(=O)c3ncc(Cl)cc3Cl)ccc2F)N=C(N)O[C@@H]2C[C@@H]21` [Example 328, N-(6-((1R,5S,6R)-3-amino-5-methyl-2-oxa-4-azabicyclo[4.1.0]hept-3-en-5-yl)-5-fluoropyridin-2-yl)-3,5-dichloropicolinamide], the IC50 in assay [1] stood at 103 nM; on Cathepsin D (Cat D), 512 µM; against BACE it was 0.0116 µM.

`C[C@@]1(c2nc(NC(=O)c3ncc(Cl)cc3Cl)ccc2F)N=C(N)O[C@H]2C[C@H]21` [Example 329, N-(6-((1S,5R,6S)-3-amino-5-methyl-2-oxa-4-azabicyclo[4.1.0]hept-3-en-5-yl)-5-fluoropyridin-2-yl)-3,5-dichloropicolinamide]: the concentration for half-maximal inhibition (IC50) in assay [1] is greater than 40000 nM; at Cathepsin D (Cat D) it was 1610 µM; on BACE, 9.6 µM.

`N#Cc1ccc(C(=O)Nc2ccc(F)c([C@@]3(C(F)F)N=C(N)O[C@@H]4C[C@@H]43)n2)nc1` [Example 331, N-(6-((1R,5S,6R)-3-amino-5-(difluoromethyl)-2-oxa-4-azabicyclo[4.1.0]hept-3-en-5-yl)-5-fluoropyridin-2-yl)-5-cyanopicolinamide]: the IC50 in assay [1] was 26700 nM; at Cathepsin D (Cat D), 1510 µM; at BACE, greater than 15.6 µM.

Turning to `C[C@]1(c2cc(NC(=O)c3ccc(Cl)cn3)cnc2F)N=C(N)O[C@@H]2C[C@@H]21` [Example 334, N-(5-((1R,5S,6R)-3-amino-5-methyl-2-oxa-4-azabicyclo[4.1.0]hept-3-en-5-yl)-6-fluoropyridin-3-yl)-5-chloropicolinamide], the IC50 in assay [1] stood at 94.4 nM; on Cathepsin D (Cat D), 402 µM; at BACE, 0.0089 µM.

For `COc1cnc(C(=O)Nc2cnc(F)c([C@]3(C)N=C(N)O[C@H]4C[C@H]43)c2)cn1` [Example 336, N-(5-((1(R,S),5(S,R),6(R,S))-3-amino-5-methyl-2-oxa-4-azabicyclo[4.1.0]hept-3-en-5-yl)-6-fluoropyridin-3-yl)-5-methoxypyrazine-2-carboxamide], the IC50 was 436 nM in assay [1], greater than 400 µM at Cathepsin D (Cat D) and 0.0416 µM against BACE.

Turning to `COc1cnc2c(Nc3ccc(F)c([C@@]4(C)N=C(N)O[C@@H]5C[C@@H]54)c3)nccc2c1` [Example 340, (1R,5S,6R)-5-(2-fluoro-5-((3-methoxy-1,7-naphthyridin-8-yl)amino)phenyl)-5-methyl-2-oxa-4-azabicyclo[4.1.0]hept-3-en-3-amine], the IC50 in assay [1] was 506 nM; on Cathepsin D (Cat D), greater than 400 µM; against BACE it was 0.0796 µM.

For `NC1=N[C@](CF)(c2cc(Nc3nccc4cc(Cl)cnc34)cc(F)c2F)[C@@H]2C[C@@H]2O1` [Example 341, (1S,5S,6S)-5-(5-((3-chloro-1,7-naphthyridin-8-yl)amino)-2,3-difluorophenyl)-5-(fluoromethyl)-2-oxa-4-azabicyclo[4.1.0]hept-3-en-3-amine], the IC50 worked out at 3410 nM in assay [1], 2890 µM on Cathepsin D (Cat D) and 3.41 µM on BACE.

Take `NC1=N[C@](CF)(c2cc(Nc3nccc4cc(Cl)cnc34)cc(F)c2F)[C@H]2C[C@H]2O1` [Example 342, (1R,5S,6R)-5-(5-((3-chloro-1,7-naphthyridin-8-yl)amino)-2,3-difluorophenyl)-5-(fluoromethyl)-2-oxa-4-azabicyclo[4.1.0]hept-3-en-3-amine]: the IC50 in assay [1] came out at 59.8 nM; on Cathepsin D (Cat D), 50.6 µM; on BACE, 0.12 µM.

As to `N#Cc1cnc2c(Nc3ccc(F)c([C@@]4(CF)N=C(N)O[C@@H]5C[C@@H]54)c3)ncc(F)c2c1` [Example 343, 8-((3-((1R,5S,6R)-3-amino-5-(fluoromethyl)-2-oxa-4-azabicyclo[4.1.0]hept-3-en-5-yl)-4-fluorophenyl)amino)-5-fluoro-1,7-naphthyridine-3-carbonitrile], the IC50 in assay [1] is 94.9 nM; on Cathepsin D (Cat D) it was greater than 44.4 µM; against BACE it was 0.0546 µM.

With `COc1cnc2c(Nc3ccc(F)c([C@@]4(CF)N=C(N)O[C@@H]5C[C@@H]54)c3)ncc(F)c2c1` [Example 344, (1R,5S,6R)-5-(2-fluoro-5-((5-fluoro-3-methoxy-1,7-naphthyridin-8-yl)amino)phenyl)-5-(fluoromethyl)-2-oxa-4-azabicyclo[4.1.0]hept-3-en-3-amine], the IC50 worked out at 430000 nM in assay [1], 596 µM on Cathepsin D (Cat D) and 0.0982 µM on BACE.

The values above are taken from patent publication US9085576B2 (AMGEN INC., priority 2013, dated 2015).
